Measured values: US20080167271A1, “PHARMACEUTICAL COMPOSITIONS COMPRISING A BISPHOSPHONATE COMPOUND” (Besins Healthcare SA, priority 2006, published 2008)
Where two headings read alike, the source gives them in different places. Values belong to the compound of their own block, whether it stands above or below them.

Key:
[1] = Bisphosphonate concentration at about 90% saturation in vehicles; assay type: physicochemical
[2] = Solubility of menthol in hydroalcoholic mixtures with bisphosphonate at 90% saturation (GC-FID); conditions: QS 100 g phosphate buffer pH 6
ovariectomized rats = test system: ovariectomized rats
Source text: Ovariectomized rats are a recognised model for bone loss study, as the surgical operation causes an estrogen deficiency which results in rapid bone loss. See Guideline on the evaluation of medicinal products in the treatment of primary osteoporosis, CPMP/EWP/552/95 available for download from the European Medicine Agency at: http://www.emea.europa.eu/.
13-week old rats (Sprague-Dawley, virgin female), 8 per group, were sham operated (group 1-control) or ovariectomized (OVX) (groups 2 to 7) on the day before the first day of treatment. […] The ratio of D-Pyr to Creat is a recognised marker of bone resorption. See, e.g., Christenson RH “Biochemical markers of bone metabolism: an overview” Clin Biochem 1997, 30(8), 573-593.
Femur and L2-L5 lumbar vertebrae block Bone Mineral Density (BMD) were calculated from in vivo Dual-energy X-ray Absorptiometry (DXA) measurement at the same time points with an Hologic apparatus. BMD was also measured ex vivo on dissected femur and L4 vertebrae at the end of the treatment period.

[3] = rat, published data (Lin et al., J Pharm Sci); cited from earlier work
[4] = humans; cited from earlier work
[5] = test system: human abdominal dermatomed skin; assay: In vitro dermal absorption, Franz cell assay; assay type: in vitro ADME
[6] = group 3: OVX rats, 2 μg/kg sc inj daily
[7] = group 4: OVX rats, topical 4.46 mg/kg daily (15.6 mg/kg/d for first 2 weeks)
[8] = group 5: OVX rats, topical 15.6 mg/kg weekly
[9] = group 7: OVX rats, topical 10.85 mg/kg twice weekly (15.6 mg/kg twice a week for first 2 weeks)
[10] = buffered hydroalcoholic solution 90/10 buffer/ethanol

SMILES: O=P([O-])(O)C(O)(Cc1cccnc1)P(=O)(O)O.[Na+] [Sodium Risedronate]
- anhydrous concentration (w/w) at about 90% saturation ([1]; Water/ethanol ratio (v/v) 50/50): 0.02%
- anhydrous concentration (w/w) at about 90% saturation ([1]; Water/ethanol ratio (v/v) 60/40): 0.17%
- anhydrous concentration (w/w) at about 90% saturation ([1]; Water/ethanol ratio (v/v) 70/30): 0.22%
- anhydrous concentration (w/w) at about 90% saturation ([1]; Water/ethanol ratio (v/v) 80/20): 0.77%
- anhydrous concentration (w/w) at about 90% saturation ([1]; Water/ethanol ratio (v/v) 90/10): 1.66%

- Solubility of menthol in the presence of sodium alendronate ([2]; 10 g ethanol absolute): 70 mg/100 g
- Solubility of menthol in the presence of sodium risedronate ([2]; 10 g ethanol absolute): 80 mg/100 g
- Solubility of menthol in the presence of sodium alendronate ([2]; 20 g ethanol absolute): 120 mg/100 g
- Solubility of menthol in the presence of sodium risedronate ([2]; 20 g ethanol absolute): 140 mg/100 g
SMILES: CC1CCC(C(C)C)C(O)C1 (stereo not shown) [menthol]

SMILES: NCCCC(O)(P(=O)(O)O)P(=O)(O)O [alendronate, 4-amino-1-hydroxybutylidene-1,1-bisphosphonic acid]
- BMD results compared with subcutaneous injection (group 3) or control (group 1) (ovariectomized rats; OVX rats treated with topical alendronate, groups 4-7): similar
- Ex vivo BMD L4 vertebrae Week 8 (ovariectomized rats; [6]): 0.251 ± 0.012 g/cm^2
- In vivo BMD Vertebrae Evolution (Week 8 − Baseline) (ovariectomized rats; [6]): 0.035 ± 0.01 g/cm^2
- In vivo BMD metaphysis Week 8 (ovariectomized rats; [6]): 0.243 ± 0.029 g/cm^2
- In vivo BMD total femur Evolution (Week 8 − Baseline) (ovariectomized rats; [6]): 0.035 ± 0.015 g/cm^2
- In vivo BMD total femur Week 8 (ovariectomized rats; [6]): 0.291 ± 0.013 g/cm^2
- Ex vivo BMD L4 vertebrae Week 8 (ovariectomized rats; [7]): 0.26 ± 0.01 g/cm^2
- In vivo BMD Vertebrae Evolution (Week 8 − Baseline) (ovariectomized rats; [7]): 0.035 ± 0.012 g/cm^2
- In vivo BMD metaphysis Week 8 (ovariectomized rats; [7]): 0.270 ± 0.032 g/cm^2
- In vivo BMD total femur Evolution (Week 8 − Baseline) (ovariectomized rats; [7]): 0.04 ± 0.008 g/cm^2
- In vivo BMD total femur Week 8 (ovariectomized rats; [7]): 0.302 ± 0.015 g/cm^2
- Ex vivo BMD L4 vertebrae Week 8 (ovariectomized rats; [8]): 0.255 ± 0.017 g/cm^2
- In vivo BMD Vertebrae Evolution (Week 8 − Baseline) (ovariectomized rats; [8]): 0.023 ± 0.012 g/cm^2
- In vivo BMD metaphysis Week 8 (ovariectomized rats; [8]): 0.252 ± 0.009 g/cm^2
- In vivo BMD total femur Evolution (Week 8 − Baseline) (ovariectomized rats; [8]): 0.023 ± 0.016 g/cm^2
- In vivo BMD total femur Week 8 (ovariectomized rats; [8]): 0.293 ± 0.011 g/cm^2
- Ex vivo BMD L4 vertebrae Week 8 (ovariectomized rats; [9]): 0.261 ± 0.015 g/cm^2
- In vivo BMD Vertebrae Evolution (Week 8 − Baseline) (ovariectomized rats; [9]): 0.028 ± 0.008 g/cm^2
- In vivo BMD metaphysis Week 8 (ovariectomized rats; [9]): 0.264 ± 0.027 g/cm^2
- In vivo BMD total femur Evolution (Week 8 − Baseline) (ovariectomized rats; [9]): 0.032 ± 0.025 g/cm^2
- In vivo BMD total femur Week 8 (ovariectomized rats; [9]): 0.304 ± 0.024 g/cm^2
- dermal tolerance problems (ovariectomized rats; groups 4 and 7, topical 15.6 mg/kg/d and 15.6 mg/kg twice a week, doses reduced after 2 weeks): formation of dry scabs
- BMD in the distal metaphysis (part of femur) compared with subcutaneous injection group (group 3) (ovariectomized rats; topically treated groups 4 and 7): statistically higher
- bone recovery after oral administration [3]: 0.9%
- concentration of anhydrous monosodium salt at 90% saturation [1, 10]: 10.4 mg/g
- concentration of anhydrous monosodium salt at 90% saturation ([1]; pure water): 28.09 mg/g
- systemic dose recovered in the urine [4]: approximately 50%

SMILES: O=P(O)(O)C(O)(Cc1cccnc1)P(=O)(O)O [risedronate, 1-hydroxy-2-(3-pyridyl)ethylidene-1,1-bisphosphonic acid]
- concentration of anhydrous monosodium salt at 90% saturation [1, 10]: 22.4 mg/g
- concentration of anhydrous monosodium salt at 90% saturation ([1]; pure water): 45.3 mg/g
- effect of glycerine on amount recovered in the receptor fluid and the dermis ([5]; FIGS. 12-13): does not significantly increase
- percutaneous absorption: recovery in the receptor fluid and the dermis ([5]; Franz cell, human skin, 24 hrs): does cross the skin
- effect of urea on amount recovered in the receptor fluid and dermis/skin ([5]; buffered solution vs 100% phosphate buffer, FIGS. 10-11): increases
- effect of menthol on amount recovered in the receptor fluid and dermis ([5]; menthol at 90% of saturating concentration in 90/10 phosphate buffer/ethanol vs phosphate buffer solution, FIGS. 6-7): does not increase
- amount recovered in the receptor fluid and the dermis with oleic acid ([5]; oleic acid at 90% of maximum solubility in 90/10 phosphate buffer/ethanol with Tween 80 4.5%, vs 100% phosphate buffer solution): lower
- effect of urea on amount recovered in the receptor fluid and dermis ([5]; urea in phosphate buffer solution, FIGS. 8-9): neutral effect
- effect of propylene glycol (PG) on amount recovered ([5]; vs 100% phosphate buffer solution, FIGS. 10-11): does not significantly affect
- effect of the increase in alcohol content on absorption (percentage of the dose applied) ([5]; water/alcohol solutions, FIGS. 1-2): slightly increased
